The text below walks through data of US20080207683A1, “BIARYL-S[…]-PYRAZOLO-PYRIDINE MODULATORS OF CATHEPSIN S” (priority 2007, published 2008).

The experiment deals with T1, Human CatS (Homo sapiens, UniProt P25774).
T1 construct: made in house; host or cells: Sf9 insect cells (baculovirus vector pFB+HT)
T1 sequence (P25774 115-331): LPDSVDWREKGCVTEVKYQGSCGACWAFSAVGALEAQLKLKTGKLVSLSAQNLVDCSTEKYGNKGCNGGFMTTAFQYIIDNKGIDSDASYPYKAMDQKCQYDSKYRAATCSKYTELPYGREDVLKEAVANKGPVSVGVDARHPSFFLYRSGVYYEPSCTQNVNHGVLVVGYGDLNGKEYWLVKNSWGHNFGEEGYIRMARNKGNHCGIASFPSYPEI
The experiment is described as follows: CatS inhibition of hydrolysis of fluorescent substrate Z-Val-Val-Arg-AFC. In kind it is biochemical. Particulars: apparent Ki, Morrison equation fit of initial rates; 10 μM Z-Val-Val-Arg-AFC, pH 5.0, 1.5 nM CatS; read-out: CatS Ki^app. On the procedure:
Human CatS was cloned into pFB+HT (from Stratagene clone), expressed in Sf9 cells, and purified over a Ni column. Fractions were concentrated and activated at pH 4.0 for 6 hr and then purified over a thiopropylsepharose column and eluted with 1×TBS, 500 mM NaCl, 1 mM EDTA, 25 mM DTT pH 7.6. Glycerol (50%) was added in a 1:1 (vol/vol) ratio (25% glycerol final) and protein was stored at −80° C. in 5 μL aliquots. […] The increase in fluorescence over time was monitored using λexcitation=400 nm and λemission=505 nm.
In equation 1, v is the initial rate measured in the presence of [I]0, the inhibitor concentration, using an enzyme concentration [E]0. v0 is the initial rate measured in the absence of inhibitor.
`CN(C)S(=O)(=O)c1cccc2c1N(CCNC(=O)c1cccc(-c3cc(-c4nn(CCCN5CCC(O)C5)c5c4CNCC5)ccc3Cl)c1)CC2` (centres unmarked) [Example 45, 2′-Chloro-5′-{1-[3-(3-hydroxy-pyrrolidin-1-yl)-propyl]-4,5,6,7-tetrahydro-1H-pyrazolo[4,3-c]pyridin-3-yl}-biphenyl-3-carboxylic acid [2-(7-dimethylsulfamoyl-2,3-dihydro-indol-1-yl)-ethyl]-amide]: the Ki was determined as 225 nM.

For `CCC(NC(=O)c1cccc(-c2cc(-c3nn(CCCN4CCCC4)c4c3CN(S(C)(=O)=O)CC4)ccc2Cl)c1)c1nc2cc(C)ccc2[nH]1` (centres unmarked) [Example 17, 2′-Chloro-5′-[5-methanesulfonyl-1-(3-pyrrolidin-1-yl-propyl)-4,5,6,7-tetrahydro-1H-pyrazolo[4,3-c]pyridin-3-yl]-biphenyl-3-carboxylic acid [1-(5-methyl-1H-benzoimidazol-2-yl)-propyl]-amide], the Ki amounted to 125 nM.

Consider `C[C@@H](CN1CCc2cc(F)ccc21)NC(=O)c1cccc(-c2cc(-c3nn(CCCN4CCCC4)c4c3CN(S(C)(=O)=O)CC4)ccc2Cl)c1` [Example 9, (S)-2′-Chloro-5′-[5-methanesulfonyl-1-(3-pyrrolidin-1-yl-propyl)-4,5,6,7-tetrahydro-1H-pyrazolo[4,3-c]pyridin-3-yl]-biphenyl-3-carboxylic acid [2-(5-fluoro-2,3-dihydro-indol-1-yl)-1-methyl-ethyl]-amide], for which the Ki was determined as 138 nM.

Consider `CS(=O)(=O)N1CCc2c(c(-c3ccc(Cl)c(-c4cccc(C(=O)NCCN5CCc6cc(F)ccc65)c4)c3)nn2CCCN2CCCC2)C1` [Example 8, 2′-Chloro-5′-[5-methanesulfonyl-1-(3-pyrrolidin-1-yl-propyl)-4,5,6,7-tetrahydro-1H-pyrazolo[4,3-c]pyridin-3-yl]-biphenyl-3-carboxylic acid [2-(5-fluoro-2,3-dihydro-indol-1-yl)-ethyl]-amide], for which the Ki was 237 nM.

For `CS(=O)(=O)N1CCc2c(c(-c3ccc(Cl)c(-c4cccc(C(=O)NCCNc5ccc(OCC6CCCC6)cc5)c4)c3)nn2CCCN2CCCC2)C1` [Example 5, 2′-Chloro-5′-[5-methanesulfonyl-1-(3-pyrrolidin-1-yl-propyl)-4,5,6,7-tetrahydro-1H-pyrazolo[4,3-c]pyridin-3-yl]-biphenyl-3-carboxylic acid [2-(4-cyclopentylmethoxy-phenylamino)-ethyl]-amide], the Ki was determined as 60.2 nM.

For the molecule `CS(=O)(=O)N1CCc2c(c(-c3ccc(Cl)c(-c4cccc(C(=O)NCCNc5cccnc5)c4)c3)nn2CCCN2CCCC2)C1` [Example 7, 2′-Chloro-5′-[5-methanesulfonyl-1-(3-pyrrolidin-1-yl-propyl)-4,5,6,7-tetrahydro-1H-pyrazolo[4,3-c]pyridin-3-yl]-biphenyl-3-carboxylic acid [2-(pyridin-3-ylamino)-ethyl]-amide], the Ki was 876 nM.

With `CS(=O)(=O)N1CCc2c(c(-c3ccc(Cl)c(-c4cccc(C(=O)NCc5nccs5)c4)c3)nn2CCCN2CCCC2)C1` [Example 19, 2′-Chloro-5′-[5-methanesulfonyl-1-(3-pyrrolidin-1-yl-propyl)-4,5,6,7-tetrahydro-1H-pyrazolo[4,3-c]pyridin-3-yl]-biphenyl-3-carboxylic acid (thiazol-2-ylmethyl)-amide], the Ki was found to be 269 nM.

`O=C(NCCNc1ccc(OCC2CCCC2)cc1)c1cccc(-c2cc(-c3nn(CCCN4CCC(O)C4)c4c3CNCC4)ccc2Cl)c1` (centres unmarked) [Example 47, 2′-Chloro-5′-{1-[3-(3-hydroxy-pyrrolidin-1-yl)-propyl]-4,5,6,7-tetrahydro-1H-pyrazolo[4,3-c]pyridin-3-yl}-biphenyl-3-carboxylic acid [2-(4-cyclopentylmethoxy-phenylamino)-ethyl]-amide]: the Ki worked out at 53.7 nM.
